# Source: patent publication US9322034B2, “Compositions and methods for detecting and modulating cell death by a translation regulated gene expression system” (Wayne State University, priority 2007, dated 2016)
# Assays:
# Type in all cases: cell-based, human
# HEK293 cells = assay: Trypan blue staining of HEK293 cells treated with toxic agents; conditions: 5-6.7 micromolar, within 24 hr
# [1] = system: HEK293 cells transformed with the CMV-EYFP, TRplp-EYFP or TRdm-EYFP expression cassettes; assay: Cytotoxicity assay by fluorescent microscopy, EYFP fluorescent cell counts; conditions: 5 micromolar
# Text: Fluorescence of single cells, tissues or cell suspensions can be detected and quantitated by several means such as visual inspection under a microscope, automated or semiautomated fluorescence imaging, flow cytometry, fluorescence spectroscopy in a fluorometer or in a microplate reader, using an appropriate filter set. For this example, visual inspection under a microscope (Nikon TE2000-S) was used to validate TR translational regulation in stressed and dying HEK293 cells expressing the TRplp-EYFP, TRdm-EYFP, TRplp-fLUC and TRdm-fLUC mRNAs.
# In this study, HEK293 cells transformed with the CMV-EYFP, TRplp-EYFP or TRdm-EYFP expression cassettes are directly visualized following translation of the spontaneously fluorescent EYFP protein. One day prior to toxin addition, 200,000 cells (HEK293, HEK293 CMV-EYFP, HEK293 TRplp-EYFP or HEK293 TRdm-EYFP) are plated into a six-well tray containing a flame sterilized glass slide. […] Slides were fixed for 10 min in 4% paraformaldehyde, washed extensively with 1×PBS and mounted for fluorescence microscopy.
# Fluorescent cell counts are performed on the 6 hr and 10 hr timepoints using an EYFP-selective filter set (Nikon) and are shown in FIG. 7. In untreated cell cultures, the frequency of EYFP-positive cells range from 1.5-2.5%, which is consistent with the frequency of nonviable cells in these cultures, as determined by Trypan blue staining. […]
# [2] = system: HEK293 TRplp-fLUC and TRdm-fLUC subclones; assay: Cytotoxicity assay by immunofluorescence of fLUC protein; conditions: 12 hr
# Text: To examine TR-mediated translation from the TR-fLUC cassettes, the translated fLUC protein requires immunolabeling with fluorescent antibodies. In this study, HEK293 cells transformed with the CMV-fLUC, TRplp-fLUC or TRdm-fLUC expression cassettes are visualized following immunodetection of the fLUC protein using a primary anti-fLUC antibody (Sigma) and a species-specific rhodamine-labeled secondary antibody (Kirkegaard and Perry Laboratories, Inc.). DAPI labeling of nuclear DNA is a well known procedure in the art and was used to label nuclei.
# Forty hours prior to toxin exposure, 300,000 cells (HEK293, HEK293 CMV-fLUC, HEK293 TRplp-fLUC subclone #3, HEK293 TRplp-fLUC subclone #17, HEK293 TRdm-fLUC subclone #12, or HEK293 TRdm, fLUC subclone #45) were plated on flame sterilized glass coverslips in a 12-well tray. Cells are cultured in complete DMEM medium. Fresh medium supplemented with 6.7 micromolar calcium ionophore A23187 is applied and slides collected at 12 hr. […] After this, the coverslips are washed in 1×PBS, labeled with DAPI (30 sec, RT), washed in 1×PBS, and mounted for fluorescence microscopy.
# In untreated cell cultures, the frequency of fLUC-positive cells ranged from 2.4-7.2%, which is 1-3 times higher than the normal frequency of nonviable cells, as determined by Trypan blue staining. […]
# [3] = system: HT1080 cells transduced with rBAC-TRdm-EYFP virions; assay: Cytotoxic event assay using rBAC-TRdm-EYFP gene delivery, fluorescence microscopy; conditions: 5 μM
# Protocol: HT1080 cells are plated in 6-well trays and allowed to grow until 70-80% confluent. Two sets of HT1080 cells are transduced with rBAC-TRdm-EYFP virions (multiplicity of infection of 10 pfu/cell and 25 pfu/cell) for 24 hr and then treated with medium containing 5 μM calcium ionophore A23187 for 13.5 hr and 23 hr. At this time, untreated and treated cells are processed and examined by fluorescence microscopic analysis as described above.
structure (smiles),measurement,setting,value
CNc1ccc2oc(C[C@H]3O[C@@]4(CC[C@H]3C)O[C@H]([C@H](C)C(=O)c3ccc[nH]3)[C@H](C)C[C@H]4C)nc2c1C(=O)O [calcium ionophore A23187],cell death in HEK293 cells as determined by Trypan blue staining,HEK293 cells,complete cell death
same,change in the number of fluorescent cells,[1]; HEK293 or HEK CMV-EYFP cells,no significant change
same,"frequency of fluorescent cells, rise in % of untreated control cultures","[1]; TRplp-EYFP expressing cells, 6 hr and 10 hr",1000-2300%
same,increase in number of fLUC positive cells compared to untreated samples,"[2]; HEK293 TRdm-fLUC subclone #12, 6.7 micromolar",3640%
same,increase in number of fLUC positive cells compared to untreated samples,"[2]; HEK293 TRdm-fLUC subclone #45, 6.7 micromolar",1440%
same,increase in EYFP positive cells compared to infected but untreated cell samples,"[3]; 13.5 hr, 10 pfu/cell",3344%
same,increase in EYFP positive cells compared to infected but untreated cell samples,"[3]; 13.5 hr, 25 pfu/cell",4925%
same,decrease in the number of attached cells,[3]; 23 hr,more than 50%
same,increase in EYFP positive cells compared to infected but untreated cell samples,"[3]; 23 hr, 10 pfu/cell",725%
same,increase in EYFP positive cells compared to infected but untreated cell samples,"[3]; 23 hr, 25 pfu/cell",875%
